Assay results from patent publication US20200239530A1, “COMPOUNDS AND METHODS OF MODULATING PROTEIN DEGRADATION” (Vividion Therapeutics, Inc., priority 2017, published 2020).

Molecular target: T1, FAM120A Constitutive coactivator of PPAR-gamma-like protei (Homo sapiens, UniProt Q9NZB2)
T1 construct: 200 μL of lysate containing 5 mg/ml proteome was treated with 2 μL of 100× compound stock; endogenous in cells
T1 sequence (Q9NZB2 1-1118): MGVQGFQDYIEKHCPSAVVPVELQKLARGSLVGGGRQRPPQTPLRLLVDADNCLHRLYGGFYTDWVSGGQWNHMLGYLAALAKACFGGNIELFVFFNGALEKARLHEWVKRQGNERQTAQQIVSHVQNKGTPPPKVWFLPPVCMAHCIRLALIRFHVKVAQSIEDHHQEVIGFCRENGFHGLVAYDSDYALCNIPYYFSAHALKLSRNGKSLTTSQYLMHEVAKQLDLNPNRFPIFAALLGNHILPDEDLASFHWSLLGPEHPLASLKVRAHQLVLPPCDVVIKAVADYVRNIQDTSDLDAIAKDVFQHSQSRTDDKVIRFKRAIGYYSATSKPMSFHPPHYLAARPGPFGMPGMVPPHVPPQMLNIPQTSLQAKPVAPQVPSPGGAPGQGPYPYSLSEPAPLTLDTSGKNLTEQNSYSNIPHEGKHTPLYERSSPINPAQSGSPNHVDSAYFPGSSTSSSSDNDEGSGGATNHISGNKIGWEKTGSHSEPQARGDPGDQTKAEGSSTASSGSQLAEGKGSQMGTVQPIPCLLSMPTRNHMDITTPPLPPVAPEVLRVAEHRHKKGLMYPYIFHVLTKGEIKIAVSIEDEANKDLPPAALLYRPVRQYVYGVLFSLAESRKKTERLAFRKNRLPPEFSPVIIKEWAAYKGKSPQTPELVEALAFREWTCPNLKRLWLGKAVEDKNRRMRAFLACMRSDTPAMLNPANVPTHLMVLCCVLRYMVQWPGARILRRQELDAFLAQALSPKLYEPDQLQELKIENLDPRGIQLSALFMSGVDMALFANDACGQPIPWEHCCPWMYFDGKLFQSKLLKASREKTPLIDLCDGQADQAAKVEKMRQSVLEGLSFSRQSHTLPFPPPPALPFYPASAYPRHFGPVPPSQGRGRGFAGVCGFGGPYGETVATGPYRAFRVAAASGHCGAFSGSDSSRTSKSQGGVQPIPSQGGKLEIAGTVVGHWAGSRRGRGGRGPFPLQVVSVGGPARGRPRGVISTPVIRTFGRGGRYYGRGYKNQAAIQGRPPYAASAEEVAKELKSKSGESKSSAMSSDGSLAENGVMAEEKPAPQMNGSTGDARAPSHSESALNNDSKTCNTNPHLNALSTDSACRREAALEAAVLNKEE
Assay: Cysteine liganding, probe competition
Type: binding
Experimental: Cells were resuspended in cold PBS on ice and sonicated with a probe sonicator to achieve lysis. 200 μL of lysate containing 5 mg/ml proteome was treated with 2 μL of 100× compound stock in a 2-mL deep-well plate. The treated lysate was subsequently incubate at 25° C. for 1 hr with shaking at 600 rpm. The treated lysate was further incubated with 2 μL of 10 mM desthiobiotin iodoacetamide probe at 25° C. for 1 hr with shaking at 600 rpm. Next, the lysate was further treat with 20 μL of solution of PBS containing 11 mM MgSO4 and 2.5% Turbonuclease stock and incubated at 25° C. for 20 minutes with shaking at 600 rpm. 1.7 mL ice-cold acetone was added to each well and incubated at −20° C. for 2 hr, followed by max speed (4200 rpm) spin for 45 min. Acetone was then decanted and the plates were blotted to remove acetone. The plates were then dried in open air for 20 minutes. After drying, the plates were then covered with foil seal and stored at −80° C. overnight.
The next day, samples were re-suspended in 90 μL of solution of 9M urea, 50 mM ammonium bicarbonate and 10 mM DTT by incubating at 65C for 20 min with shaking at 1500 rpm. Next, samples were cooled to 37° C. and then 10 μL of 500 mM iodoacetamide solution (92.48 mg/ml) was added. The samples were then incubated at 37° C. for 30 min with shaking at 600 rpm.
ZEBA desalting plates were equilibrated 4 times using 250 μL of 2M urea, 50 mM ammonium bicarbonate solution followed by centrifugation at 1500 rpm for 2 minutes. After equilibration was complete, samples were applied to ZEBA desalting plate and spin at 1500 rpm for 2 min on top of 1 mL 96-well deep-well collection plate to buffer exchange samples. 4 μL of solution containing 25 mM CaCl2 and 0.25 mg/mL trypsin was added to the plate and the plate was then incubated at 37° C. for 2 hrs with shaking at 600 rpm. 300 μL of solution containing 5% high-capacity streptavidin agarose slurry in 25 mM Tris-HCl pH 7.5, 150 mM NaCl, and 0.1% NP-40 then added. The plate was incubated at 25° C. for 2 hrs with shaking at 600 rpm. Samples were transferred to 25 μm filter plate and spin at 1000 rpm for 2 min. Samples were then washed 3 times with 0.75 mL of wash buffer (25 mM Tris-HCl pH 7.5, 150 mM NaCl, and 0.1% NP-40) followed by washing 3 times with 0.75 mL PBS, and then 4 times with 0.75 mL water. After the washing step, samples were eluted into polypropylene 96-well plate by addition of 250 µL of 50% MeCN/water, 0.1% formic acid and allowed to gravity drip for 10 min, followed by centrifugation at 1000 rpm for 2 min. Speedvac was used to dry the plates at about 45° C. for […]. Then the plates were covered with foil seal and stored at −20° C.
Samples were resuspended by addition of 20 μl of 12.5% ACN, 0.1% formic acid solution, covered with foil seal, and incubated at 42° C. for 10 minutes with shaking at 600 rpm. Then add 30 μL of 0.1% formic acid solution was added and the plate was covered and incubated at 42° C. for 10 minutes with shaking at 600 rpm. Seal plate was then sealed with a 96-well silicon mat for analysis.

| Structure (SMILES) | Liganded (FAM120A Res# 919, uniprot Q9NZB2) | 100 ave (uniprot Q9NZB2) | 500 Max (uniprot Q9NZB2) | 500 ave (uniprot Q9NZB2) | 100 Max (uniprot Q9NZB2, in % (unit assumed)) |
| --- | --- | --- | --- | --- | --- |
| COc1ccc2c(c1)CCCN2C(=O)CCl [KB02] | YES | – | – | – | – |
| O=C(CCl)Nc1cc(C(F)(F)F)cc(C(F)(F)F)c1 [KBO3] | – | −8.925 | 55.62 | 55.62 | 13.09 |
